{"source": "patent US5340925A", "about": "“Normal human growth regulatory receptor for TGF-β” (Oncogen, priority 1992, dated 1994)", "key": {"HEPM cells": {"tested_on": "HEPM cells", "assay": "Stimulation of anchorage independent growth assay (soft agar)", "assay_type": "cell-based, human", "details": "50 pM TGF-β1 at plating, colonies enumerated on day 13", "experimental": "FIGS. 3(A) and 3(B) Bioactivity of TGF-β on HEPM cells: stimulation of growth in soft agar. Cells were treated with 50 pM TGF-β1, at the time of plating and colony formation was enumerated on day 13.\nA 0.5 ml base layer of 0.5% agar (Agar Noble; Difco Laboratories, Detroit, Mich.) in growth medium was added to 24-well Costar tissue culture plates 0.5 ml 0.3% agar in growth medium containing 1×10^4 HEPM cells and various concentrations of TGF-β or other test samples was overlaid on the base layer of agar in triplicate wells. The plates were incubated at 37° C. in a humidifed atmosphere of 5% CO2 in air for up to 14 days without refeeding. Colonies were enumerated unfixed and unstained. The number of colonies with more than 6 cells were scored."}, "[1]": {"tested_on": "TGF-β receptor on HEPM cells", "assay": "TGF-β receptor down-regulation in TGF-β1 treated HEPM cells, assessed by radioreceptor assay", "assay_type": "cell-based, human", "details": "for Kd: HEPM cells treated 18 hours with 100 pM TGF-β1", "experimental": "HEPM cells were grown to confluence (1×10^5 cells/well) in 24-well Costar tissue culture plates. Prior to the binding assay, cells were pre-incubated in serum-free growth medium at 37° C. for 4 hours to allow for the dissociation of TGF-β from occupied cells surface receptors. The resulting monolayers were washed 2 times in binding buffer (Dulbecco's MEM+0.1% BSA+25 mM HEPES). 250 μl of binding buffer containing 0.5 μg/ml [^125 I]-iodoTGF-β1, (specific activity of 100 μCi/μg) together with increasing amounts of unlabeled TGF-β1 were added to duplicate wells. Steady state binding was carried out at 4° C. for 3 hours. After incubation cells were washed 3 times with cold binding buffer and solubilized in 200 μl of Triton solution (20 mM HEPES, 1% Triton X-100, 10% glycerol, 0.01% BSA, pH 7.4). Radioactivity was determined using a gamma spectrometer. Non-specific binding was determined in the presence of a 1,000-fold molar excess unlabeled TGF-β1.\nBriefly, HEPM cells were treated with 100pM TGF-β1, for 18 hours, washed with serum-free medium, and incubated in fresh serum-free medium for 60 minutes to allow for the disassociation of residually bound TGF-β1. The radioreceptor assay described in Materials and Methods was used to assess the extent of receptor down-regulation in the treated cells relative to untreated control cells. […] The combined total receptor down-regulation observed was 57%."}, "[2]": {"details": "100 pM TGF-β1, 18 hours, vs control cells"}}, "note": "Read-outs that look alike come from different tables or passages of the source.", "data": [{"substance": "TGF-β1: Transforming growth factor-Beta type 1; two identical disulfide linked subunits having molecular weights of 13,000; recombinant material used", "values": [{"measurement": "mean colony number in soft agar", "setting": "HEPM cells", "value": "8±1"}, {"measurement": "high affinity binding sites in treated cells", "setting": "[1]; 100 pM TGF-β1, 18 hours", "value": "14,000 sites/cell"}, {"measurement": "low affinity binding sites in treated cells", "setting": "[1]; 100 pM TGF-β1, 18 hours", "value": "108,800 sites/cell"}, {"measurement": "combined total receptor down-regulation", "setting": "[1]; [2]", "value": 57, "unit": "%"}, {"measurement": "down-regulation of the high affinity binding sites", "setting": "[1]; [2]", "value": 74, "unit": "%"}, {"measurement": "down-regulation of the low affinity binding sites", "setting": "[1]; [2]", "value": 53, "unit": "%"}, {"measurement": "Kd", "setting": "[1]; read-out: kd, high affinity binding sites", "value": 40, "unit": "pM"}, {"measurement": "Kd", "setting": "[1]; read-out: kd, low affinity binding sites", "value": 974, "unit": "pM"}]}]}
